The text below walks through data of article PMC9781087, “Discovery of New Microbial Collagenase Inhibitors” (Life, 2022).

Each structure is given as a SMILES string. Like-named read-outs stand apart in the source and are kept apart here.

This experiment deals with collagenase A (ColA) (Clostridium perfringens, UniProt P43153). The experiment can be described thus: biochemical. Particulars: for Inhibition (%) on ColA: after 30 min of incubation. Further details: species or system C. perfringens.
Setting [1] is: read-out: Inhibition(%) on ColA.
Setting [2] is: read-out: Inhibition (%) on ColA.
Where [3] appears, read: 5 µM, mean ± SD of three replications.
[4] abbreviates: 100 µM, preliminary screening (Table S1), * = compound precipitated due to low solubility.

Chain of collagenase A (ColA) (P43153 87-1104 limits assumed): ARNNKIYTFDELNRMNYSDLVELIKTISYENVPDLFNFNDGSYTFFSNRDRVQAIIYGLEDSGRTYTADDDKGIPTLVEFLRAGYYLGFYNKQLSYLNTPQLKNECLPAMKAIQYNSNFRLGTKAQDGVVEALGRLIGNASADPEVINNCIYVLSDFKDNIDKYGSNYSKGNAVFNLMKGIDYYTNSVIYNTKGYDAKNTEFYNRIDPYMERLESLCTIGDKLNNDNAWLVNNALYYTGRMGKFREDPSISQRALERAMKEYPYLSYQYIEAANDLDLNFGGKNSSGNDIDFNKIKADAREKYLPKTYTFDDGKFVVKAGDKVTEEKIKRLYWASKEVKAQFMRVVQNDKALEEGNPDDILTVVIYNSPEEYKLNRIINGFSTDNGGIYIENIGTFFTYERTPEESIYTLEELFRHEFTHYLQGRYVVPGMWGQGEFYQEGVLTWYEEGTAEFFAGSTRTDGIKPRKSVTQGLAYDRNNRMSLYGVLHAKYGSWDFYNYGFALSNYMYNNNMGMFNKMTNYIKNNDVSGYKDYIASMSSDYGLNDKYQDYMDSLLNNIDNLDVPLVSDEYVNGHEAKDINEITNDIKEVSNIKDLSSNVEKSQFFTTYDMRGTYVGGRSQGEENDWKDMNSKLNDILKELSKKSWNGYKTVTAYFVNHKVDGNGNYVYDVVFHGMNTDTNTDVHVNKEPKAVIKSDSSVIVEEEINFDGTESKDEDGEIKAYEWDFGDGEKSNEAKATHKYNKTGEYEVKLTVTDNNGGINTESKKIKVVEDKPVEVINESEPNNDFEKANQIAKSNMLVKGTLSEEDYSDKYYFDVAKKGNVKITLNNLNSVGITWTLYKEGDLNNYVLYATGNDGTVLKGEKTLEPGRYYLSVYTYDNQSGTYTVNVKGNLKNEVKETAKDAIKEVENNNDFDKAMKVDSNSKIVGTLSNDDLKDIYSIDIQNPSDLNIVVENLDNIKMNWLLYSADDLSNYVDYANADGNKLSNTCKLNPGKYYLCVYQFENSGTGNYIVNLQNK

In general, inhibition refers to the drop in the measured response relative to a control, in per cent. `CC(NS(=O)(=O)c1cccc(Cl)c1)C(=O)O` (racemic) [N-(3-chlorophenylsulfonyl)-DL-alanine]: the inhibition at 100 µM under setting [1] was -19.2%.
Take `O=C(O)C1NCCc2c1[nH]c1ccccc21` (stereo not drawn) [1,2,3,4-tetrahydro-beta-carboline-1-carboxylic acid]: the inhibition at 100 µM under setting [1] stood at 1.5%.
With `Nc1ccc2c(c1N)C(=O)c1ccccc1C2=O` [1,2-diaminoanthraquinone], the inhibition at 100 µM under setting [1] amounted to 4.3%.
Still for that read-out and setting: the figure for `O=C1c2ccccc2C(=O)c2c(O)ccc(O)c21` [1,4-dihydroxyanthraquinone] is 3.2%.
Same read-out and setting: the figure for `O=C(O)C1CCCN1S(=O)(=O)c1cccc(C(F)(F)F)c1` (centres unmarked) [1-{[3-(trifluoromethyl)phenyl]sulfonyl}-2-pyrrolidinecarboxylic acid] is 0.7%.
As for `O=C(/C=C/c1ccccc1)c1ccccc1O` [2′-Hydroxychalcone, 2′-hydroxychalcone], the “inhibitory effect on ColA (in words)” value was “potent inhibitory effect”. For the same molecule, the “Inhibition (%) on ColA” value (100 µM, mean ± SD of three replications (five-dose assay)) was “Almost complete inhibition”. Under setting [2], the inhibition at 1 µM is -12.1 ± 0.2%, the inhibition at 5 µM was found to be 1.2 ± 0.9%, the inhibition at 10 µM came out at 6.5 ± 1.3% and the inhibition at 50 µM turned out to be 21.8 ± 1.2%. Moreover, the inhibition at 100 µM under setting [2] was 97.3 ± 1.3%. The inhibition at 100 µM under setting [1] came to 87.8%.
For `O=c1c(O)c(-c2ccccc2)oc2ccc(O)cc12` [3,6-dihydroxyflavone], the “inhibitory effect on ColA (in words)” value was “low inhibitory effects”. Further, the inhibition at 100 µM under setting [1] is 2.7%.
For `O=c1c(O)c(-c2ccccc2)oc2ccccc12` [3-Hydroxyflavone, 3-hydroxyflavone], the “inhibitory effect on ColA (in words)” value is reported as “low impact on the enzyme activity”. Also, under setting [2], the inhibition at 1 µM was -13.4 ± 2.7%, the inhibition at 5 µM was -17 ± 5.1%, the inhibition at 10 µM was found to be 17.4 ± 4.5% and the inhibition at 50 µM was found to be 25.1 ± 6.8%. Under setting [2], the inhibition at 100 µM came to 31 ± 4.3%. Besides, the inhibition at 100 µM under setting [1] came out at 27.6%.
For `O=C(O)C=Cc1cccc(O)c1` [3-hydroxycinnamic acid], the inhibition at 100 µM under setting [1] turned out to be 0.8%.
Regarding `O=c1oc(-c2ccccc2)cc2ccccc12` [3-phenyl-1H-2-benzopyran-1-one], the inhibition at 100 µM under setting [1] came to 0.2%.
Take `COc1ccc(-c2oc3ccccc3c(=O)c2O)cc1` [4'-methoxyflavonol, 4′-methoxyflavonol]: the inhibition at 100 µM under setting [1] came to 3.7%.
With `Oc1cc(O)nc(S)n1` [4,6-dihydroxy-2-mercaptopyrimidine], the inhibition at 100 µM under setting [1] was -7.2%.
For `Cc1ccc(S(=O)(=O)NC(N)=O)cc1` [4-methylphenylsulfonylurea], the inhibition at 100 µM under setting [1] is 19.6%.
With `O=c1cc(-c2ccc(O)cc2)oc2cccc(O)c12` [4′,5-Dihydroxyflavone, 4′,5-dihydroxyflavone], the “IC50 (in words)” value was “nanomolar range” and the “inhibitory effect on ColA (in words)” value is on record as “potently inhibits its activity”. In addition, under setting [3], the “Inhibition (%) on ColA” value was “Almost complete inhibition”. Also, under setting [2], the inhibition at 1 µM is -48 ± 3.6%, the inhibition at 5 µM was determined as 101.6 ± 0.6%, the inhibition at 10 µM is 107.5 ± 1% and the inhibition at 50 µM came to 101 ± 1.9%. Under setting [2], the inhibition at 100 µM turned out to be 105 ± 2.9%. Besides, the inhibition at 100 µM under setting [1] came out at 15%.
As to `O=c1ccc2cc(O)ccc2o1` [6-hydroxycoumarin], the inhibition at 100 µM under setting [1] was determined as 12.5%.
As for `COc1ccc2[nH]c3c(c2c1)CCNC3C(=O)O` (centres unmarked) [6-methoxy-1,2,3,4-tetrahydro-9H-pyrido [3,4-b]indole-1-carboxylic acid], under setting [2], the inhibition at 1 µM is -19.9 ± 2.7%, the inhibition at 5 µM was -1.3 ± 2.1%, the inhibition at 10 µM is -5.2 ± 0.7% and the inhibition at 50 µM amounted to 2.8 ± 1.3%. For the same molecule, under setting [2], the inhibition at 100 µM is 19.6 ± 3.9%. Also, under setting [1], the inhibition at 100 µM worked out at 18.8%.
Turning to `COc1ccc2oc(-c3ccccc3)c(O)c(=O)c2c1` [6-methoxyflavonol], the inhibition at 100 µM under setting [1] was 10.7%.
On to `COc1ccc(-c2coc3cc(O)cc(O)c3c2=O)cc1` [Biochanin A, biochanin A], for which the “inhibitory effect on ColA (in words)” value is given as “potent inhibitory effect”. Also, the “Inhibition (%) on ColA” value (50 µM, mean ± SD of three replications) is “Almost complete inhibition”. Besides, under setting [2], the inhibition at 1 µM was -24.8 ± 5.3%, the inhibition at 5 µM turned out to be 23 ± 2.6%, the inhibition at 10 µM turned out to be 34.1 ± 2.2% and the inhibition at 50 µM was determined as 99.1 ± 1%. Also, the inhibition at 100 µM under setting [2] stood at 76.1 ± 0.7%. The inhibition at 100 µM under setting [1] was found to be 57.9%.
For the molecule `COc1cc(CNC(=O)CCCC/C=C/C(C)C)ccc1O` [Capsaicin, capsaicin, reference compound], the “IC50 (in words)” value is recorded as “nanomolar range”. Also, the “Inhibition (%) on ColA” value (1 µM, mean ± SD of three replications, 1 µM) is on record as 94.8 ± 0.8%. The “Inhibition (%) on ColA” value (1 µM, mean ± SD of three replications, listed as capsaicin, 1 µM) is recorded as “Almost complete inhibition”. For the same molecule, under setting [3], the “Inhibition (%) on ColA” value was 100.5 ± 0.8%. The “Inhibition (%) on ColA” value under setting [4] turned out to be 87.9%.
For `NC(=O)NCCC[C@H](N)C(=O)O` [Citrulline, citrulline], under setting [2], the inhibition at 1 µM is -4.3 ± 3.5%, the inhibition at 5 µM was -14.1 ± 1.4%, the inhibition at 10 µM was 27.8 ± 3% and the inhibition at 50 µM was 24.3 ± 1.7%. Besides, under setting [2], the inhibition at 100 µM was 7.2 ± 0.5%. Further, the inhibition at 100 µM under setting [1] is 6.8%.
For the molecule `COc1cc(/C=C/C(=O)CC(=O)/C=C/c2ccc(O)c(OC)c2)ccc1O` [Curcumin, curcumin], the “inhibitory effect on ColA (in words)” value is on record as “very potent ColA inhibitor”. Also, the “Inhibition (%) on ColA” value under setting [3] was “Almost complete inhibition”. For the same molecule, under setting [2], the inhibition at 1 µM is -10 ± 3.9%, the inhibition at 5 µM stood at 101.8 ± 0.6%, the inhibition at 10 µM was 102.5 ± 0.8% and the inhibition at 50 µM came out at 101.5 ± 0.4%. The inhibition at 100 µM under setting [2] stood at 101.8 ± 0.7%. For the same molecule, the inhibition at 100 µM under setting [1] turned out to be 102%.
For `NC(=O)NCCC[C@H](NC(=O)OCC1c2ccccc2-c2ccccc21)C(=O)O` [Fmoc-L-citrulline], under setting [4], the “Inhibition (%) on ColA” value was 20.8%.
`C[C@H](N)C(=O)O` [L-alanine]: the inhibition at 100 µM under setting [1] came to 3.1%.
`O=c1c(O)c(-c2cc(O)c(O)c(O)c2)oc2cc(O)cc(O)c12` [Myricetin, myricetin]: the “inhibitory effect on ColA (in words)” value is on record as “low inhibitory effect”. Under setting [2], the inhibition at 1 µM is -15.4 ± 2.7%, the inhibition at 5 µM was -4.5 ± 1.1%, the inhibition at 10 µM was -1 ± 1.1% and the inhibition at 50 µM stood at 13.6 ± 0.6%. For the same molecule, the inhibition at 100 µM under setting [2] amounted to 23.2 ± 2%. The inhibition at 100 µM under setting [1] worked out at 27.6%.
Turning to `O=c1cc(-c2ccccc2)oc2cccc(O)c12` [Primuletin, primuletin], the “inhibitory effect on ColA (in words)” value is given as “low impact on the enzyme activity”. Moreover, under setting [2], the inhibition at 1 µM was -9.3 ± 1.7%, the inhibition at 5 µM was -8.8 ± 2.1%, the inhibition at 10 µM is -0.7 ± 1.3% and the inhibition at 50 µM came out at 8.5 ± 2.1%. Further, the inhibition at 100 µM under setting [2] came out at 25.4 ± 1.8%. Under setting [1], the inhibition at 100 µM is 33.1%.
`O=C(O)c1cc(O)c2c(c1)C(=O)c1cccc(O)c1C2=O` [Rhein, rhein]: the “inhibitory effect on ColA (in words)” value is “potent inhibitors of ColA”. For the same molecule, under setting [2], the inhibition at 1 µM turned out to be 2.6 ± 0.6%, the inhibition at 5 µM came out at 22.9 ± 2.7%, the inhibition at 10 µM amounted to 37.4 ± 3.2% and the inhibition at 50 µM was 77.3 ± 2.2%. Moreover, under setting [2], the inhibition at 100 µM came to 80.6 ± 1%. Moreover, the inhibition at 100 µM under setting [1] amounted to 78.5%.
Turning to `CC(=O)NCCCS(=O)(=O)O` [acamprosate calcium, reference compound], the inhibition at 100 µM under setting [1] came out at 17.2%.
`CC(=O)c1ccc(S(=O)(=O)NC(=O)NC2CCCCC2)cc1` [acetohexamide, reference compound]: the inhibition at 100 µM under setting [1] came out at 16.6%.
Same read-out and setting: the same measure for `CC(=O)N[C@@H](CS)C(=O)O` [acetylcysteine, reference compound]: 3.4%; for `O=C1c2c(O)cccc2C([C@@H]2O[C@H](CO)[C@@H](O)[C@H](O)[C@H]2O)c2cc(CO)cc(O)c21` (some centres unmarked) [aloin]: 4.4%; for `O=c1cc(-c2ccc(O)cc2)oc2cc(O)cc(O)c12` [apigenin]: 2.7%.
With `CC1CNc2c(cccc2S(=O)(=O)N[C@@H](CCCNC(=N)N)C(=O)N2CC[C@@H](C)C[C@@H]2C(=O)O)C1` (some centres unmarked) [argatroban, reference compound], the inhibition at 100 µM under setting [1] is -12.3%.
With `C[C@@H]1CC[C@H]2[C@@H](C)C(=O)O[C@@H]3O[C@@]4(C)CC[C@@H]1[C@]32OO4` [artemisinin, reference compound], the inhibition at 100 µM under setting [1] was found to be 5.6%.
For the molecule `NS(=O)(=O)c1cc2c(cc1C(F)(F)F)NC(Cc1ccccc1)NS2(=O)=O` (centres unmarked) [bendroflumethiazide, reference compound], under setting [1], the inhibition at 100 µM stood at 21.6%.
Take `C/C(=C(\CCOP(=O)(O)O)SC(=O)c1ccccc1)N(C=O)Cc1cnc(C)nc1N` [benfotiamine, reference compound]: under setting [1], the inhibition at 100 µM is -20.4%.
As to `CCOC(=O)[C@H](CCCNC(=N)N)NC(=O)c1ccccc1.Cl` [benzoyl-L-arginine ethyl ester hydrochloride], under setting [4], the “Inhibition (%) on ColA” value is recorded as -6.6%.
For the molecule `COc1ccc2cc3[n+](cc2c1OC)CCc1cc2c(cc1-3)OCO2` [berberine], under setting [1], the inhibition at 100 µM was -2.5%.
In the case of `O=C(O)/C=C/c1ccc(O)c(O)c1` [caffeic acid], the “inhibitory effect on ColA (in words)” value is listed as “low effects”. Besides, under setting [1], the inhibition at 100 µM is -3.8%.
Consider `C[C@@]12C(=O)OC(=O)[C@]1(C)[C@H]1CC[C@@H]2O1` [cantharidin], for which the inhibition at 100 µM under setting [1] was determined as 26.8%.
Regarding `C[C@H](CS)C(=O)N1CCC[C@H]1C(=O)O` [captopril, reference compound], the inhibition at 100 µM under setting [1] is 5.2%.
The same measure, in the same setting: the same measure for `O=C(/C=C/c1ccc(O)c(O)c1)O[C@@H]1C[C@](O)(C(=O)O)C[C@@H](O)[C@H]1O` [chlorogenic acid]: 4.8%.
Take `O=c1cc(-c2ccccc2)oc2cc(O)cc(O)c12` [chrysin]: the “inhibitory effect on ColA (in words)” value is listed as “low inhibitory effects”. Moreover, the inhibition at 100 µM under setting [1] is -3.4%.
For the molecule `Cc1cc(O)c2c(c1)C(=O)c1cccc(O)c1C2=O` [chrysophanol], the inhibition at 100 µM under setting [1] was -11.1%.
